Test results taken from patent publication US20030104473A1, “Common ligand mimics: benzimidazoles” (priority 2001, published 2003).
Read-outs that look alike come from different tables or passages of the source.

Key:
[1] = biological target: T1, alcohol dehydrogenase (ADH) (Saccharomyces cerevisiae, UniProt P00330); experiment: ADH kinetic assay, spectrophotometric reduction of NAD+ at 340 nm; assay type: biochemical, Bakers Yeast
T1 construct: 10 μl of ADH from Bakers Yeast; host or cells: baker's yeast
T1 sequence (P00330 1-348): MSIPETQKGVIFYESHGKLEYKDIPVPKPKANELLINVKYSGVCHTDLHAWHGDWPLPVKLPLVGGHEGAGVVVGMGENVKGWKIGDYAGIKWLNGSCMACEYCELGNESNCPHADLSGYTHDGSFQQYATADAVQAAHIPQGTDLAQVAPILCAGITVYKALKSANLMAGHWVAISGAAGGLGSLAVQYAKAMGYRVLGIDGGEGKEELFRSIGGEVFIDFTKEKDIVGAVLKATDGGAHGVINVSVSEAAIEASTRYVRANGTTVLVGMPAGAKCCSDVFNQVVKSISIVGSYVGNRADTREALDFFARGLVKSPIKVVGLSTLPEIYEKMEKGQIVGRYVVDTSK
Method: For ADH analysis, the compounds were screened using a kinetic protocol that spectrophotometrically evaluates reduction of NAD+.
(§1) Stock solutions of each of the reagents were prepared in the following concentrations. Dilutions of the stock solutions were prepared prior to running the assay in the concentrations indicated below.
The ADH reaction was monitored at 340 nm prior to and after addition of the inhibitor to detect background reaction with the inhibitor. Solutions of 100 μl of the inhibitors in DMSO were prepared to provide a final DMSO concentration of 5% of the total assay volume. These solutions were incubated for 6 minutes at 25° C. in a 990 μl of a solution containing 0.1 M HEPES, pH 8.0, 80 μM NAD+, and 130 mM of ethanol. The reaction was then initiated with 10 μl of ADH from Bakers Yeast ([…]; 1:400 dilution of 1.0 mg/ml). After the enzyme was added, the solution was mixed for 20 seconds, and the reaction was run for 10 minutes. After a 50 second lag, the samples were read in a Cary spectrophotometer at 340 nm. Reading of the samples was continued until 300 seconds. Cuvette #1 contained the control reaction (no inhibitor), and cuvette #2 contained the positive control reaction in which Cibacron Blue at 15.5 μM was substituted for inhibitor to yield 50 to 60% inhibition. The substrate was kept at a level at least 10 times the Km. The final concentration of […] was about 2.5 mM.
Where only a simple read was desired, as in the case of NAD+ concentration determination, 13 μl (10 M stock) of ethanol was used to drive the reaction, and 10 μl of pure enzyme (1 mg/ml) was used. NAD+was soluble at 2 mM, which allowed the concentration determination step to be skipped. In this situation, the procedure was as follows. All of the ingredients except for the enzyme were mixed together. The solution was mixed well and the absorbance at 340 nm read. The enzyme was added and read again at OD 340 after the absorbance stopped changing, generally 10 to 15 minutes after the enzyme was added.

[2] = biological target: inosine-5′-monophosphate dehydrogenase (IMPDH); experiment: IMPDH kinetic assay, spectrophotometric reduction of NAD+ at 340 nm; assay type: biochemical; details: Example 13 oxidoreductase panel (FIG. 7)
Method: For IMPDH analysis, the compounds were screened using a kinetic protocol that spectrophotometrically evaluates reduction of NAD+.
as §1
The IMPDH reaction was monitored at 340 nm prior to and after addition of the inhibitor to detect background reaction with the inhibitor. Solutions of 100 μl of the inhibitors in DMSO were prepared to provide a final DMSO concentration of 5% of the total assay volume. These solutions were incubated for 6 minutes at 37° C. in a 992 μl of a solution containing 0.1 M Tris-HCl, pH 8.0, 0.25 M KCl, 0.3% glycerol, 30 μM NAD+, and 600 μM IMP (inosine monophosphate). The reaction was then initiated with 8 μl of IMPDH (0.75 μg/ml). After the enzyme was added, the solution was mixed for 20 seconds, and the reaction was run for 10 minutes. After a 50 second lag, the samples were read in a Cary spectrophotometer at 340 nm. Reading of the samples was continued until 300 seconds. Cuvette #1 contained the control reaction (no inhibitor), and cuvette #2 contained the positive control reaction in which Cibacron Blue was substituted for inhibitor. The substrate was kept at a level at least 10 times the Km.

[3] = biological target: dihydrodipicolinate reductase (DHPR) (Escherichia coli, UniProt P04036); experiment: DHPR kinetic assay, spectrophotometric oxidation of NADPH at 340 nm; assay type: biochemical
Method: For DHPR analysis, the compounds were screened using a kinetic protocol that spectrophotometrically evaluates oxidation of NADPH.
Stock solutions of each of the reagents were prepared in the following concentrations. Dilutions of the stock solutions were prepared prior to running the assay in the concentrations indicated below. DHPR was diluted in 10 mM HEPES at a pH of 7.4. DHPS (dihydrodipicolinate synthase) was not diluted and was stored in eppindorf tubes.
The L-ASA (L-aspartate semialdehyde) solution was prepared in the following manner. […] stock solution of ASA was prepared. 100 μl of the ASA stock solution was mixed with 150 μl of concentrated NaHCO3 and 375 μl of H2O. For use in the assay, 28.8 mM L-ASA was equal to 625 μl of the solution. The L-ASA stock Aft solution was kept at a temperature of −20° C. After dilution, the pH of the 28.8 mM solution was checked and maintained between 1 and 2.
The DHPS reaction was monitored at 340 nm prior to and after addition of the inhibitor to detect background reaction with the inhibitor. The solution for background detection was a 945 μl solution containing 0.1 HEPES (pH 7.8), 1 mM pyruvate, 6 μM NADPH, 40 μM L-ASA, and 7 μl of 1 mg/ml DHPS at 25° C. in the volumes provided above. The sample solution was then mixed and incubated for 10 minutes. Next, 500 nM solutions of the inhibitors and enough DMSO to provide a final DMSO concentration of 5% of the total assay volume were added. The solution was mixed and incubated for an additional 6 minutes.
In DHPR samples, 5 μl of the diluted DHPR enzyme were added. The sample was mixed for 20 seconds and then the reaction was run for 10 minutes. After a 50 second lag, the samples were read in a Cary spectrophotometer at 340 nm. Reading of the samples was continued until 300 seconds. Cuvette #1 contained the control reaction (no inhibitor), and cuvette #2 contained the positive control reaction in which Cibacron Blue at 2.58 μM was substituted for inhibitor to yield 70 to 80% inhibition. The substrate was kept at a level at least 10 times the Km. The final concentration of L-ASA was about 1 mM.

dihydrodipicolinate reductase (DHPR), sequence (P04036 whole entry): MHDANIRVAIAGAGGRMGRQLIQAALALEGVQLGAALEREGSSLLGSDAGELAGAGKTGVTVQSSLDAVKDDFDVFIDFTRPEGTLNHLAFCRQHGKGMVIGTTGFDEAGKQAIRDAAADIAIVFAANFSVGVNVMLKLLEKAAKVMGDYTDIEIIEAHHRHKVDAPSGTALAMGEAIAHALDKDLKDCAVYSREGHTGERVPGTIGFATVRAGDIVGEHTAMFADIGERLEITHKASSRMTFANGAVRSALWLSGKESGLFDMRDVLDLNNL

SMILES | IC50 [1] [µM] | IC50 [2] [µM] | IC50 ([3]; Example 13 oxidoreductase panel (FIG. 7), read-out: IC50 for DHPR) [µM] | IC50 ([3]; Example 14, common ligand mimics (FIG. 8), read-out: IC50 for DHPR) [µM] | IC50 ([3]; IC50 for DHPR, Example 13 oxidoreductase panel (FIG. 7)) [µM] | IC50 ([3]; IC50 for DHPR, Example 14, common ligand mimics (FIG. 8)) [µM]
O=C(O)c1ccc(-c2ccc(-c3nc4ccccc4[nH]3)o2)cc1 [compound 6b, 4-[5-(1H-benzoimidazol-2-yl)-furan-2-yl] benzoic acid] | 49 | 22 | > 48 | 32.6 |  | 
O=C(O)c1ccc(-c2ccc(-c3nc4cc([N+](=O)[O-])ccc4[nH]3)o2)cc1 [compound 6d, 4-[5-(5-nitro-1H-benzoimidazol-2-yl)-furan-2-yl]-benzoic acid] | > 150 | 15.8 |  |  | > 75 | > 75
